Laboratory results taken from paper PMC3731160 (ACS medicinal chemistry letters, 2013).
≈ marks a conversion by molar mass, not a printed value. Like-named read-outs stand apart in the source and are kept apart here.

Columns and labels:
EP4 receptor = EP4 receptor (Homo sapiens, UniProt P35408); conditions: for inhibition of EP4 receptor: up to 40 µM, agonist saturated conditions
[1] = Metabolic stability in pooled mouse liver microsomes; conditions: 1 and 10 µM
[2] = Aqueous solubility in PBS buffer by nephelometry; conditions: pH 7
β2-Adrenergic receptors = test: β2-adrenergic receptor counter assay; conditions: up to 40 µM, agonist saturated conditions
[3] = Pharmacokinetics and brain permeability in female C57Bl/6 mice; conditions: 1h and 2h
IP receptor = IP receptor (Homo sapiens, UniProt P43119); test: cell-based
Sequence of IP receptor (P43119 whole entry): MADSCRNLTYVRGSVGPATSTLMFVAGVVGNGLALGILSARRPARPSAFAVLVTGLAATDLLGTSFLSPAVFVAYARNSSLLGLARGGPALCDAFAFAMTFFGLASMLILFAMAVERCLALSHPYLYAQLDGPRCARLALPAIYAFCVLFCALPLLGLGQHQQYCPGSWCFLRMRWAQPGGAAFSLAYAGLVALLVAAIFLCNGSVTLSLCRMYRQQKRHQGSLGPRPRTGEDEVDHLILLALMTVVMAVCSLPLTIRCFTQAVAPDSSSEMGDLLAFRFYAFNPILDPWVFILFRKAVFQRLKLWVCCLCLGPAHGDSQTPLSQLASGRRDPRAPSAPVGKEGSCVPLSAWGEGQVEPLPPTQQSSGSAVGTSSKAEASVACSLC

EP2 receptor = EP2 receptor (Homo sapiens, UniProt P43116); test: PGE2-induced cAMP accumulation; type: cell-based; conditions: competitive antagonism of EP2
Sequence of EP2 receptor (P43116 whole entry): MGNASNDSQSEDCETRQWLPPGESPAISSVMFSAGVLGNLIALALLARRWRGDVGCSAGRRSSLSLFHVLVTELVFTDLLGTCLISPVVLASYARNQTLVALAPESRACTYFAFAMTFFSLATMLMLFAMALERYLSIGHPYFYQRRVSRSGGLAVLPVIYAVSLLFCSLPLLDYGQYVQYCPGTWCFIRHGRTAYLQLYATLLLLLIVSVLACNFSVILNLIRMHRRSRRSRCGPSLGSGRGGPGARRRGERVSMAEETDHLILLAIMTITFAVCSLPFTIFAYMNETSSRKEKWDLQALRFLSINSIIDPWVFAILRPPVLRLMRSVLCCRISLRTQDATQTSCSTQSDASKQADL

[4] = Metabolic stability in pooled human liver microsomes; conditions: 1 and 10 µM
P388D1 macrophages = test: Butaprost-induced mRNA expression of inflammatory markers in P388D1 macrophages; type: cell-based

Sequence of EP4 receptor (P35408 whole entry): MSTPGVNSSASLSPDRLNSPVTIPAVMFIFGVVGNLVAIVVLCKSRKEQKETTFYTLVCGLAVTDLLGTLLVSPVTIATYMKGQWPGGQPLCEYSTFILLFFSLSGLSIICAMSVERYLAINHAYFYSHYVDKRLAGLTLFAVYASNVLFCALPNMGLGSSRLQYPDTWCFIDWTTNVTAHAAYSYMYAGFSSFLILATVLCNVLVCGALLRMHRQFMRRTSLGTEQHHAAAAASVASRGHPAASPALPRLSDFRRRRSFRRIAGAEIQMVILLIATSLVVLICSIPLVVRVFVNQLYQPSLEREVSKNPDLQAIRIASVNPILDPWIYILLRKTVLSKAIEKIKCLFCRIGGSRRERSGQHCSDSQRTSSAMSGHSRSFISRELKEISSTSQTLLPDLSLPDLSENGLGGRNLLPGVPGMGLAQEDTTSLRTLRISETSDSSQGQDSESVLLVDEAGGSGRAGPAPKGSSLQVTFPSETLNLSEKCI

With `CCc1nnc(NS(=O)(=O)c2ccc(NC(=S)NC(=O)/C=C/c3ccc(F)cc3)cc2)s1` [TG6-129, (E)-N-((4-(N-(5-ethyl-1,3,4-thiadiazol-2-yl)sulfamoyl)phenyl)carbamothioyl)-3-(4-fluorophenyl)acrylamide] the “inhibition of EP4 receptor” value (EP4 receptor) was “without affecting”, the “inhibition of EP4 receptor” value (EP4 receptor; listed as 1) was “no inhibition” and the “compound remaining at 60 minutes” value [1] was 40–60%. The solubility [2] was 145 µM (≈ 71.3 µg/mL), the “inhibition of β2-Adrenergic receptor” value (β2-Adrenergic receptors) was “without affecting” and the “inhibition of β2-Adrenergic receptor” value (β2-Adrenergic receptors; listed as 1) was “no inhibition”. For the same compound, the “compound found in brain samples” value ([3]; 5mg/kg ip) was “no detectable amount”, the “compound found in brain samples” value ([3]; 10 mg/kg oral gavage) was “no detectable amount” and the Kb (IP receptor) was 199 nM. For the same compound, the Schild regression slope (EP2 receptor) was 1.2 and the “compound remaining at 60 minutes” value [4] was 40–60%.

With `CCCC1([C@H](O)C/C=C/[C@H]2[C@H](O)CC(=O)[C@@H]2CCCCCCC(=O)OC)CCC1` [butaprost] the “mRNA expression of COX-2, IL-1β, IL-6, IL-12 (p40), IL-17, IL-23, TNF-α” value (P388D1 macrophages; butaprost 10 µM, 2 h) was “significantly elevated” and the “expression of EP2 receptor mRNA” value (P388D1 macrophages; butaprost, 2h) was “only a slight increase”.

With `COc1cc(NS(=O)(=O)c2ccc(NC(=S)NC(=O)/C=C/c3ccc(F)cc3)cc2)ncn1` [compound 6] the “compound remaining at 60 minutes” value [1] was 40–60% and the “compound remaining at 60 minutes” value [4] was 40–60%.

With `COc1cc(NS(=O)(=O)c2ccc(NC(=S)NC(=O)c3sc4cc(F)ccc4c3Cl)cc2)nc(OC)n1` [compound 8] the “KB (µM) EP4” value (EP4 receptor; Schild KB, average of 2–5 independent experiments) was “submicromolar”.
